Experiments:
Type in all cases: cell-based
human TRPML1 = human TRPML1 (Homo sapiens, UniProt Q9GZU1); assay: Fluorescent TRPML1 assay (Fluo4-AM calcium fluorescence, HEK-293 Trex cells)
Summary of the method: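 Tet-inducible HEK-293 Trex cells stably expressing surface-targeted mutant human TRPML1, induced with 0.5 ug/mL doxycycline overnight, loaded with Fluo4-AM and suspended in Ringer's with 10 mM calcium. Compounds tested from 20 μM to 6 nM final, half-log steps, in triplicate; fluorescence (ex 480/em 540) normalised to plate controls, EC50 by non-linear regression.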

TRPML2 = target: T1, TRPML2 (Homo sapiens, UniProt Q8IZK6); assay: Fluorescent TRPML2 assay (as for TRPML1)
T1 construct: expressed in transfected cells
T1 sequence (Q8IZK6 1-566): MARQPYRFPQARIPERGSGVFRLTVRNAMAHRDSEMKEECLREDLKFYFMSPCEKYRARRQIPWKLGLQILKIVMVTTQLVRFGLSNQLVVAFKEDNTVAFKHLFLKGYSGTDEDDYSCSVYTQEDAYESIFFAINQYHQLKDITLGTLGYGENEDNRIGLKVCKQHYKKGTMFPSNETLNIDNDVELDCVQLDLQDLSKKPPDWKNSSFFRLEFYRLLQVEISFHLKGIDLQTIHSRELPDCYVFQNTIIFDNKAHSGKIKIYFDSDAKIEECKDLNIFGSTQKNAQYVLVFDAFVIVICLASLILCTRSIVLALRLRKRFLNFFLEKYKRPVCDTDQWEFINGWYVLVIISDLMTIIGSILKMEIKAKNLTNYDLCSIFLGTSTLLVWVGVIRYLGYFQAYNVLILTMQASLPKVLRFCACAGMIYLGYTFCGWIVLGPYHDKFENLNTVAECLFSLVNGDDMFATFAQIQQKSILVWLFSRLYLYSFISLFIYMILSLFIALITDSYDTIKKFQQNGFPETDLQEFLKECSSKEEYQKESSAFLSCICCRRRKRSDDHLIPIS
Summary of the method: (§1)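 HEK-293 Trex cells with tet-inducible (0.5 ug/mL doxycycline, overnight) surface-targeted mutant channel, Fluo4-AM loaded, suspended in Ringer's with 10 mM calcium. Compounds tested 20 µM to 6 nM final, half-log steps, triplicate; fluorescence at ex 480/em 540 nm. EC50 by non-linear regression of percent activity versus plate controls.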

TRPML3 = target: T2, TRPML3 (Homo sapiens, UniProt Q8TDD5); assay: Fluorescent TRPML3 assay (as for TRPML1)
T2 construct: expressed in transfected cells
T2 sequence (Q8TDD5 1-553): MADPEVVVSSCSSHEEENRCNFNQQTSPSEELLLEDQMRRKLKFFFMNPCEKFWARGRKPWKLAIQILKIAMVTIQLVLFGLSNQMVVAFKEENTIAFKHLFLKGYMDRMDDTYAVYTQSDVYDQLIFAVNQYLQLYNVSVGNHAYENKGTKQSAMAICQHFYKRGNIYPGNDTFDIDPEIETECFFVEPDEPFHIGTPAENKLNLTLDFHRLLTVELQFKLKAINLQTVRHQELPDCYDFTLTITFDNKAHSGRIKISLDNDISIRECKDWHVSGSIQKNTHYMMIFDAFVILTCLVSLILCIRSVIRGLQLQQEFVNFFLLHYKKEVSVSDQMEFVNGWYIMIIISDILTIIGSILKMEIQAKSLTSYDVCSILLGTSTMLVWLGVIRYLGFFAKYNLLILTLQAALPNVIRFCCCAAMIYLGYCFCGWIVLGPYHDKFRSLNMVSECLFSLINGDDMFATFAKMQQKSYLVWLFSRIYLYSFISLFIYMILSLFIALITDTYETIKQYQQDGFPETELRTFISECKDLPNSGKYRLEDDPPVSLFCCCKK
Summary of the method: as §1

Sequence of human TRPML1 (Q9GZU1 whole entry L15A/L16A/L577A/L578A, form open): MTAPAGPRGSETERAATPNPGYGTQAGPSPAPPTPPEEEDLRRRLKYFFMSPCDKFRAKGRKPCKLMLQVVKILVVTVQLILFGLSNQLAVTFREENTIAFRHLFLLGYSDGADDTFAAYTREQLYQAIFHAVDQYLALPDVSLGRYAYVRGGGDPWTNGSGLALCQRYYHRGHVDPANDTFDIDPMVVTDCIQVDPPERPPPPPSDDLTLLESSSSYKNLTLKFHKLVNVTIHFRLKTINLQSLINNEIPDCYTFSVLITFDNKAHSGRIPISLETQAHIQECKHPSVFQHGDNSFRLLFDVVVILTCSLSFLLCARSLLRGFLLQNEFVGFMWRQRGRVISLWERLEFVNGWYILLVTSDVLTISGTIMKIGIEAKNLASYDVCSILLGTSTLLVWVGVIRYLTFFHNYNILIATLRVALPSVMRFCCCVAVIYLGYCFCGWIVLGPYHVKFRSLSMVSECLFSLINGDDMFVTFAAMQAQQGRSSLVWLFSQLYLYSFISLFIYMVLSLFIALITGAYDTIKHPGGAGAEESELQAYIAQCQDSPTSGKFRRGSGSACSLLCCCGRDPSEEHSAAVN

Structure (SMILES)	EC50 (human TRPML1; Table 3, compounds 101-177) [nM]	EC50 (TRPML2; Table 3, compounds 101-177) [nM]	EC50 (TRPML3; Table 3, compounds 101-177) [nM]	EC50 (human TRPML1; Table 3, compounds 201-283) [nM]	EC50 (TRPML2; Table 3, compounds 201-283) [nM]	EC50 (TRPML3; Table 3, compounds 201-283) [nM]
CC(C)C(=O)N1CCN(c2ncnc3c2c(-c2ccccc2F)cn3-c2cc(C#N)ccn2)C2(CC2)C1 [Compound 155, 2-(5-(2-fluorophenyl)-4-(7-isobutyryl-4,7-diazaspiro[2.5]octan-4-yl)-7H-pyrrolo[2,3-d]pyrimidin-7-yl)isonicotinonitrile]	< 100	100 to 500	< 100			
C[C@@H]1CN(c2ncnc3c2c(-c2ccccc2F)cn3-c2cc(C#N)ccn2)[C@@H](C)CN1C(=O)C(C)(C)O [Compound 158, 2-(5-(2-fluorophenyl)-4-((2S,5R)-4-(2-hydroxy-2-methylpropanoyl)-2,5-dimethylpiperazin-1-yl)-7H-pyrrolo[2,3-d]pyrimidin-7-yl)isonicotinonitrile]	< 100	100 to 500	< 100			
C[C@@H]1CN(c2cn(-c3cc(C#N)ccn3)c3ncnc(N4CCN(C(=O)CC(C)(C)C)C[C@@H]4C)c23)CCO1 [Compound 165, 2-(4-((S)-4-(3,3-dimethylbutanoyl)-2-methylpiperazin-1-yl)-5-((R)-2-methylmorpholino)-7H-pyrrolo[2,3-d]pyrimidin-7-yl)isonicotinonitrile]	< 100	100 to 500	< 100			
CCCN(CC)c1cn(-c2cc(C#N)ccn2)c2ncnc(N3CCN(C(=O)CC(C)(C)C)C[C@@H]3C)c12 [Compound 166, (S)-2-(4-(4-(3,3-dimethylbutanoyl)-2-methylpiperazin-1-yl)-5-(ethyl(propyl)amino)-7H-pyrrolo [2,3-d]pyrimidin-7-yl)isonicotinonitrile]	< 100	100 to 500	< 100			
CC(C)(O)C(=O)N1CCN(c2ncnc3c2c(-c2ccccc2F)cn3-c2cc(C#N)ccn2)C(C)(C)C1 [Compound 170, 2-(5-(2-fluorophenyl)-4-(4-(2-hydroxy-2-methylpropanoyl)-2,2-dimethylpiperazin-1-yl)-7H-pyrrolo[2,3-d]pyrimidin-7-yl)isonicotinonitrile]	< 100	100 to 500	< 100			
Cc1nccnc1-c1cn(-c2cc(C#N)ccn2)c2ncnc(N3C[C@@H](C)N(C(=O)CC(C)C)C[C@@H]3C)c12 [Compound 173, 2-(4-((2S,5R)-2,5-dimethyl-4-(3-methylbutanoyl)piperazin-1-yl)-5-(3-methylpyrazin-2-yl)-7H-pyrrolo[2,3-d]pyrimidin-7-yl)isonicotinonitrile]	100 to 500	> 2000	> 2000			
CC(C)C(=O)N1C[C@@H](C)N(c2ncnc3c2c(-c2ccccc2F)cn3-c2cc(C#N)ccn2)C[C@@H]1C [Compound 201, 2-(5-(2-fluorophenyl)-4-((2R,5S)-4-isobutyryl-2,5-dimethylpiperazin-1-yl)-7H-pyrrolo[2,3-d]pyrimidin-7-yl)isonicotinonitrile]				500 to 2000	100 to 500	100 to 500
C[C@@H]1CN(c2ncnc3c2c(C(F)(F)F)cn3-c2cccc(Cl)c2)[C@@H](C)CN1C(=O)C(C)(C)C [Compound 204, 1-((2R,5S)-4-(7-(3-chlorophenyl)-5-(trifluoromethyl)-7H-pyrrolo[2,3-d]pyrimidin-4-yl)-2,5-dimethylpiperazin-1-yl)-2,2-dimethylpropan-1-one]				< 100	100 to 500	< 100
C[C@@H]1CN(c2ncnc3c2c(C2CC2)cn3-c2cccc(Cl)c2)[C@@H](C)CN1C(=O)C(C)(C)C [Compound 206, 1-((2R,5S)-4-(7-(3-chlorophenyl)-5-cyclopropyl-7H-pyrrolo[2,3-d]pyrimidin-4-yl)-2,5-dimethylpiperazin-1-yl)-2,2-dimethylpropan-1-one]				< 100	100 to 500	< 100
C[C@@H]1CN(c2ncnc3c2c(C(F)(F)F)cn3-c2cc(C#N)ccn2)[C@@H](C)CN1C(=O)C(C)(C)C [Compound 207, 2-(4-((2S,5R)-2,5-dimethyl-4-pivaloylpiperazin-1-yl)-5-(trifluoromethyl)-7H-pyrrolo[2,3-d]pyrimidin-7-yl)isonicotinonitrile]				< 100	100 to 500	< 100
COC(C)(C)C(=O)N1C[C@H](C)N(c2ncnc3c2c(C(F)(F)F)cn3-c2cc(C#N)ccn2)C[C@H]1C [Compound 208, 2-(4-((2S,5R)-4-(2-methoxy-2-methylpropanoyl)-2,5-dimethylpiperazin-1-yl)-5-(trifluoromethyl)-7H-pyrrolo[2,3-d]pyrimidin-7-yl)isonicotinonitrile]				< 100	500 to 2000	< 100
C[C@@H]1CN(c2ncnc3c2c(C(F)(F)F)cn3-c2cc(C#N)ccn2)[C@@H](C)CN1C(=O)CC(C)(C)C [Compound 209, 2-(4-((2S,5R)-4-(3,3-dimethylbutanoyl)-2,5-dimethylpiperazin-1-yl)-5-(trifluoromethyl)-7H-pyrrolo[2,3-d]pyrimidin-7-yl)isonicotinonitrile]				< 100	< 100	< 100
C[C@@H]1CN(c2ncnc3c2c(C2CC2)cn3-c2cccc(F)c2)[C@@H](C)CN1C(=O)C(C)(C)C [Compound 214, 1-((2R,5S)-4-(5-cyclopropyl-7-(3-fluorophenyl)-7H-pyrrolo[2,3-d]pyrimidin-4-yl)-2,5-dimethylpiperazin-1-yl)-2,2-dimethylpropan-1-one]				< 100	> 2000	500 to 2000
C[C@H]1CN(C(=O)C(C)(C)C)CCN1c1ncnc2c1c(C1CC1)cn2-c1cccc(F)c1 [Compound 215, (S)-1-(4-(5-cyclopropyl-7-(3-fluorophenyl)-7H-pyrrolo[2,3-d]pyrimidin-4-yl)-3-methylpiperazin-1-yl)-2,2-dimethylpropan-1-one]				100 to 500	100 to 500	500 to 2000
C[C@@H]1CN(c2ncnc3c2c(N2CCC2)cn3-c2cccc(Cl)c2)[C@@H](C)CN1C(=O)C(C)(C)C [Compound 220, 1-((2R,5S)-4-(5-(azetidin-1-yl)-7-(3-chlorophenyl)-7H-pyrrolo[2,3-d]pyrimidin-4-yl)-2,5-dimethylpiperazin-1-yl)-2,2-dimethylpropan-1-one]				< 100	100 to 500	< 100
COC(C)(C)C(=O)N1C[C@H](C)N(c2ncnc3c2c(C(F)(F)F)cn3-c2cccc(F)c2)C[C@H]1C [Compound 223, 1-((2R,5S)-4-(7-(3-fluorophenyl)-5-(trifluoromethyl)-7H-pyrrolo[2,3-d]pyrimidin-4-yl)-2,5-dimethylpiperazin-1-yl)-2-methoxy-2-methylpropan-1-one]				< 100	> 2000	100 to 500
C[C@@H]1CN(c2nccc3c2c(C2CC2)cn3-c2cccc(F)c2)[C@@H](C)CN1C(=O)C(C)(C)C [Compound 229, 1-((2R,5S)-4-(3-cyclopropyl-1-(3-fluorophenyl)-1H-pyrrolo[3,2-c]pyridin-4-yl)-2,5-dimethylpiperazin-1-yl)-2,2-dimethylpropan-1-one]				< 100	> 2000	< 100
C[C@@H]1CN(c2ncnc3c2c(-c2ccccc2F)cn3-c2cc(C#N)ccn2)[C@@H](C)CN1C(=O)C(C)(C)C [Compound 230, 2-(4-((2S,5R)-2,5-dimethyl-4-pivaloylpiperazin-1-yl)-5-(2-fluorophenyl)-7H-pyrrolo[2,3-d]pyrimidin-7-yl)isonicotinonitrile]				< 100	< 100	< 100
[2H]C([2H])([2H])C(C(=O)N1C[C@H](C)N(c2ncnc3c2c(-c2ccccc2F)cn3-c2cc(C#N)ccn2)C[C@H]1C)(C([2H])([2H])[2H])C([2H])([2H])[2H] [Compound 231, 2-(4-((2S,5R)-4-(2,2-bis(methyl-d3)propanoyl-3,3,3-d3)-2,5-dimethylpiperazin-1-yl)-5-(2-fluorophenyl)-7H-pyrrolo[2,3-d]pyrimidin-7-yl)isonicotinonitrile]				< 100	< 100	< 100

From US20240398812A1 (Caraway Therapeutics, Inc., priority 2021, published 2024)
